Here are results for 23 compounds from US4661516A, “Diaminocyclohexane platinum complexes” (Research Corporation, priority 1984, dated 1987).

Data set [1] concerns Wild type L1210 leukemic cells. Briefly: In vitro cytotoxicity, wild type L1210 leukemic cells (L1210/0). Particulars: L1210, 72 hours incubation. The class given is cell-based. As for the experimental part:
Four ml of cell suspension (10^5 cells/ml) are added to culture tubes and the appropriate concentration (0.01, 0.1, 1 or 10 μg/ml final concentration) of drug added to the culture tubes. After 72 hours of incubation, the cell concentration of control and experimental cultures are determined with the aid of a Coulter Counter® Model ZBf and the percent inhibition calculated. […]

The test system of data set [2] is L1210 cells. Put plainly: In vivo anti-tumor activity, L1210, single i.p. injection. Further details: species or system BDF1 mice. Particulars: single i.p. The procedure: About 24 hours after inoculation of the cells, the mice were injected intraperitoneally with varying dosages of complexes of the present invention. […] Long term survival signifies that animals were alive 60 days after inoculation with L1210 cells.

Data set [3] deals with L1210/0 leukemia cells. Put plainly: In vivo anti-tumor activity, L1210 (L1210/0), multiple i.p. doses. Further details: species or system BDF1 mice. The following applies: for LTS: survivors/treated 50 days after treatment. The procedure: BDF1 mice were inoculated intraperitoneally with 10^6 L1210 cells. About 24 hours after inoculation of the cells, the mice were injected intraperitoneally with varying dosages of complexes of the present invention. Six mice were used for each dosage level in each experiment with an equal number of control mice inoculated with 10^6 L1210 cells and left untreated with a given complex. The results [%T/C=(survival time of treated animals/survival time of control animals)×100] are set forth below. Long term survival signifies that animals were alive 60 days after inoculation with L1210 cells.
The procedure of Example 16 was repeated except that the treated animals were injected with multiple doses of the complex as indicated below:
The anti-tumor activity of compound number 3 was evaluated against cells sensitive to (L1210/0) and resistant to (L1210/PDD) the standard platinum complex cis-diamminedichloroplatinum(II).
The following complexes were tested in vivo oncolytic activity following 3 i.p. injections (days 1, 5, 9) according to the protocol described in Examples 16 and 17.
BDF1 mice were innoculated intraperitoreally with 10^6 L1210 leukemia cells and treatment was begun on the next day (day 1). Two treatment schedules, i.e. single i.p. injection of the drug and i.p. injections on days 1, 5 and 9 according to the protocol described in Examples 16 and 17 were used.

`NC1CCCCC1N.O=C([O-])C1CC(O)CN1.O=C([O-])C1CC(O)CN1.[Pt+2]` (mixture of isomers) [Compound 17, cis-bis-L-hyroxyprolinato(DACH)Pt(II).1H2 O] came in with an ID50 in data set [1] of 2.7 µg/mL. Further, the “% T/C” value was 160% in data set [2] (25 mg/kg), 170% in data set [2] (50 mg/kg) and “Toxic” in data set [2] (100 mg/kg).
With `NC1CCCCC1N.O.O=C1CC(C(=O)[O-])C(C(=O)[O-])O1.[Pt+2]` (racemic) [Compound 12, DL-isocitratolactone(DACH)Pt(II).1H2 O], the ID50 in data set [1] was determined as 1.0 µg/mL. The “% T/C” value in data set [2] (25 mg/kg) was 133%; in data set [2] (50 mg/kg) it was 145%; in data set [2] (100 mg/kg) it was “Toxic”; in data set [3] (25 mg/kg, days 1,5,9), 219%; in data set [3] (50 mg/kg, days 1,5,9), 165%.
In data set [1], `NC1CCCCC1N.O.O=C([O-])C1CCCCN1.O=C([O-])C1CCCCN1.[Pt+2]` (racemic) [Compound 18, cis-bis-DL-pipecolinato(DACH)Pt(II).1H2 O] yielded an ID50 of 0.44 µg/mL. Also, the entries for the “% T/C” value in data set [2] (12.5 mg/kg), in data set [2] (25 mg/kg) and in data set [2] (50 mg/kg) were 145%, 180% and “Toxic”, respectively.
`NC1CCCCC1N.O=C([O-])[C@@H]1CCC[C@H]1C(=O)[O-].[Pt+2]` (racemic) [Compound 27, trans-DL-1,2-cyclopentanedicarboxylato(DACH)Pt(II)] yielded an ID50 in data set [1] of 0.4 µg/mL. Further, the “% T/C” value in data set [2] (12.5 mg/kg) came to 158%; in data set [2] (25 mg/kg) it was 159%; in data set [2] (50 mg/kg) it was 183%.
Turning to `NC1CCCCC1N.O=C1OC(C(O)CO)C([O-])=C1O.O=C1OC(C(O)CO)C([O-])=C1O.[Pt+2]` (stereo not drawn) [Compound 6, cis-bis-ascorbato(cis-DACH)Pt(II).5H2 O], the ID50 in data set [1] (4320 min) was 4.0 µg/mL. For the same compound, the “% T/C” value in data set [2] (50 mg/kg) and in data set [2] (100 mg/kg) was “Toxic” each time.
For the compound `NC1CCCCC1N.O.O.O=C([O-])C1=CC(O)C(O)C(O)C1.O=C([O-])C1=CC(O)C(O)C(O)C1.[Pt+2]` (stereo not drawn) [Compound 10, cis-bis-shikimato(DACH)Pt(II).2H2 O], the “% T/C” value was found to be 140% in data set [2] (50 mg/kg); 217% in data set [2] (100 mg/kg); 139% in data set [3] (12.5 mg/kg, days 1,5,9); 149% in data set [3] (25 mg/kg, days 1,5,9); 222% in data set [3] (50 mg/kg, days 1,5,9). Also, the “Long Term Survivors” value is recorded as 2/6 in data set [2] (100 mg/kg, alive 60 days after inoculation) and 1/6 in data set [3] (50 mg/kg, days 1,5,9).
Turning to `NC1CCCCC1N.O.O.O=S(=O)([O-])CCO.O=S(=O)([O-])CCO.[Pt+2]` (stereo not drawn) [Compound 13, cis-bis-isethionato(DACH)Pt(II).2H2 O], the ID50 in data set [1] was determined as 0.43 µg/mL. Further, the “% T/C” value in data set [2] (5 mg/kg) was 153%; in data set [2] (10 mg/kg), 180%; in data set [2] (20 mg/kg) it was 140%; in data set [2] (50 mg/kg), “Toxic”. Further, the “animals died of apparent drug toxicity” value in data set [2] (20 mg/kg) is on record as 2/6. For the same compound, the “Long Term Survivors” value in data set [2] (20 mg/kg, alive 60 days after inoculation) is 1/6.
In the case of `NC1CCCCC1N.O.O=C([O-])C1CCN1.O=C([O-])C1CCN1.[Pt+2]` [Compound 15, cis-bis-L-azetidinecarboxylato(DACH)Pt(II).1H2 O], in data set [1], the ID50 was determined as 3.6 µg/mL. Besides, the “% T/C” value is listed as 157% in data set [2] (12.5 mg/kg), 148% in data set [2] (25 mg/kg), 161% in data set [2] (50 mg/kg) and “Toxic” in data set [2] (100 mg/kg).
In the case of `NC1CCCCC1N.O.O=C([O-])C1(C(=O)[O-])CC1.[Pt+2]` [Compound 20, cyclopropane-1,1-dicarboxylato(DACH)Pt(II).H2 O], in data set [1], the ID50 came to 0.41 µg/mL.
With `NC1CCCCC1N.O.O=C([O-])C1CCCCC1.O=C([O-])C1CCCCC1.[Pt+2]` [Compound 22, Cis-bis-cyclohexanecarboxylato(DACH)Pt(II).1H2 O], the ID50 in data set [1] amounted to 0.5 µg/mL. The “% T/C” value in data set [2] (50 mg/kg) is listed as 140%; in data set [2] (100 mg/kg), 170%.
As to `NC1CCCCC1N.O.O=C([O-])CC1(CC(=O)[O-])CCCCC1.[Pt+2]` [Compound 23, 1,1-cyclohexanediacetato(DACH)Pt(II).1H2 O], in data set [1], the ID50 turned out to be 0.6 µg/mL.
In data set [1], `NC1CCCCC1N.O.O=C([O-])C1CCCC1.O=C([O-])C1CCCC1.[Pt+2]` (stereo not drawn) [Compound 25, Cis-bis-cyclopentanecarboxylato(DACH)Pt(II).1H2 O] showed an ID50 of 0.3 µg/mL. For the same compound, the “% T/C” value in data set [2] (12.5 mg/kg) is 161%; in data set [2] (25 mg/kg), 178%; in data set [2] (50 mg/kg), 163%; in data set [3] (6.25 mg/kg i.p., days 1, 5, 9, 30 day observation period), 202%; in data set [3] (12.5 mg/kg i.p., days 1, 5, 9, 30 day observation period), 246%; in data set [3] (25 mg/kg i.p., days 1, 5, 9, 30 day observation period) it was 253%.
On to `NC1CCCCC1N.O.O=C([O-])C1CC1.O=C([O-])C1CC1.[Pt+2]` (stereo not drawn) [Compound 29, Cis-bis-cyclopropanecarboxylato(DACH)Pt(II).1H2 O], for which, in data set [1], the ID50 is 0.3 µg/mL. The results for the “% T/C” value in data set [2] (12.5 mg/kg), in data set [2] (25 mg/kg) and in data set [2] (50 mg/kg) were 252%, 176% and 199%, respectively. For the same compound, the LTS in data set [2] (12.5 mg/kg) is on record as 1/6. In addition, in data set [2] (50 mg/kg, alive 60 days after inoculation), the “Long Term Survivors (LTS)” value is 1/6.
Consider `NC1CCCCC1N.O.O=C([O-])C1CCC1.O=C([O-])C1CCC1.[Pt+2]` (stereo not drawn) [Compound 30, Cis-bis-cyclobutanecarboxylato(DACH)Pt.1H2 O], for which the ID50 in data set [1] was 0.4 µg/mL. Besides, the “% T/C” value stood at 149% in data set [2] (12.5 mg/kg), 154% in data set [2] (25 mg/kg) and 145% in data set [2] (50 mg/kg).
For `CCS(=O)(=O)[O-].CCS(=O)(=O)[O-].NC1CCCCC1N.O.[Pt+2]` (stereo not drawn) [Compound 31, Cis-bis-ethanesulfonato(DACH)Pt(II).H2 O], in data set [1], the ID50 is 3.1 µg/mL. Moreover, the “% T/C” value in data set [2] (12.5 mg/kg) turned out to be 109%; in data set [2] (25 mg/kg) it was 134%; in data set [2] (50 mg/kg), 153%; in data set [3] (50 mg/kg i.p., days 1, 5, 9, 30 day observation period), 198%; in data set [3] (100 mg/kg i.p., days 1, 5, 9, 30 day observation period), 295%. In addition, the LTS in data set [3] (50 mg/kg, days 1, 5, 9) is 1/6; in data set [3] (100 mg/kg, days 1, 5, 9) it was 2/6.
The compound `NC1CCCCC1N.NCC(=O)[O-].NCC(=O)[O-].O.[Pt+2]` (stereo not drawn) [Compound 32, Cis-bis-glycinato(DACH)Pt(II).1H2 O] yielded an ID50 in data set [1] of 2.5 µg/mL. Also, the “% T/C” value was found to be 128% in data set [2] (12.5 mg/kg), 131% in data set [2] (25 mg/kg) and 158% in data set [2] (50 mg/kg).
In the same order, the values of `NC1CCCCC1N.O=S(=O)([O-])CCCl.O=S(=O)([O-])CCCl.[Pt+2]` (stereo not drawn) [Compound 33, Cis-bis-chloroethanesulfonato(DACH)Pt(II).1H 2 O] are 0.3 µg/mL, 188%, 144% and “Toxic”.
`NC1CCCCC1N.O=C([O-])CN(CCO)CCO.O=C([O-])CN(CCO)CCO.[Pt+2]` [Compound 34, Cis-bis-bicinato(DACH)Pt(II)] came in with an ID50 in data set [1] of 1.2 µg/mL. For the same compound, the “% T/C” value in data set [2] (12.5 mg/kg) amounted to 165%; in data set [2] (25 mg/kg), 151%; in data set [2] (50 mg/kg), 160%.
`NC1CCCCC1N.O.O.O=C([O-])CNCC(=O)[O-].[Pt+2]` [Compound 35, Iminodiacetato(trans-R,R--DACH)Pt(II).2H2 O] yielded an ID50 in data set [1] of 3.0 µg/mL. Further, in data set [3] (Tables X and XI, days 1, 5 and 9, at maximal effective dose, alive 60 days after tumor inoculation), the “Long Term Survivors” value was 2/6. Further, the “Maximal Effective Dose” value in data set [3] (Tables X and XI, i.p. on days 1, 5 and 9) is recorded as 25 mg/kg. Besides, the “% T/C” value in data set [3] (Tables X and XI, i.p. on days 1, 5 and 9, at maximal effective dose) turned out to be 437%.
As to `NC1CCCCC1N.O.O.O=C([O-])C1CCCN1.O=C([O-])C1CCCN1.[Pt+2]` [Compound 36, Cis-bis-L-prolinato(trans-R,R--DACH)Pt(II).2H2 O], the ID50 in data set [1] turned out to be 0.8 µg/mL. The “% T/C” value worked out at 179% in data set [2] (12.5 mg/kg), 212% in data set [2] (25 mg/kg) and 149% in data set [2] (50 mg/kg). Also, the “Long Term Survivors (LTS)” value in data set [2] (25 mg/kg) was 1/6.
Consider `NC1CCCCC1N.O=C([O-])[C@@H]1C[C@H]1C(=O)[O-].[Pt+2]` [Compound 40, trans-1,2-cyclopropanedicarboxylato(DACH)Pt(II)], for which the ID50 in data set [1] stood at 0.4 µg/mL.
`NC1CCCCC1N.O=C([O-])[C@@H]1CC[C@H]1C(=O)[O-].[Pt+2]` [Compound 41, trans-1,2-cyclobutanedicarboxylato(DACH)Pt(II)]: the ID50 in data set [1] stood at 0.5 µg/mL.
The compound “Cis-bis-cyclohexenecarboxylato(DACH)Pt(II).1H2 O [Compound 24]” yielded an ID50 in data set [1] of 1.0 µg/mL. Moreover, the results for the “% T/C” value in data set [2] (25 mg/kg), in data set [2] (50 mg/kg) and in data set [2] (100 mg/kg) were 132%, 165% and 105%, respectively.
